Measured values taken from ChEMBL document CHEMBL5247648, “Design, Synthesis, and Anti-Cancer Evaluation of Novel Cyclic Phosphate Prodrug of Gemcitabine” (J Med Chem, 2023).
Activity calls are given as the source filed them. The calls are words filed in the database; no cut-off is given here.

Assays:
MM1.S = assay: Antiproliferative activity against human MM1.S cells assessed as inhibition of cell proliferation treated for 72 hrs by resazurin dye-based fluorescence assay; assay type: functional
BXPC-3 [1] = assay: Antiproliferative activity against human BXPC-3 cells assessed as inhibition of cell proliferation treated for 72 hrs by resazurin dye-based fluorescence assay; assay type: functional; details: BXPC-3, 72 h
MIA PaCa-2 = assay: Antiproliferative activity against human MIA PaCa-2 cells assessed as inhibition of cell proliferation treated for 72 hrs by resazurin dye-based fluorescence assay; assay type: functional; details: MIA PaCa-2, 72 h
CWR22R [2] = assay: Antiproliferative activity against human 22Rv1 cells assessed as inhibition of cell proliferation treated for 72 hrs by resazurin dye-based fluorescence assay; assay type: functional; details: 22Rv1, 72 h
MV4-11 = assay: Antiproliferative activity against human MV4-11 cells assessed as inhibition of cell proliferation treated for 72 hrs by resazurin dye-based fluorescence assay; assay type: functional; details: MV4-11, 72 h
JeKo-1 = assay: Antiproliferative activity against human JeKo-1 cells assessed as inhibition of cell proliferation treated for 72 hrs by resazurin dye-based fluorescence assay; assay type: functional; details: JeKo-1, 72 h
Huh-7 = assay: Antiproliferative activity against human Huh-7 cells assessed as inhibition of cell proliferation treated for 72 hrs by resazurin dye-based fluorescence assay; assay type: functional; details: Huh-7, 72 h
BXPC-3 [3] = assay: Induction of apoptosis in human BXPC-3 cells assessed as viable cells at 100 nM incubated for 24 hrs by […] (reference value: 93.51 %); assay type: functional; details: read-out: Activity
BXPC-3 [4] = assay: Induction of apoptosis in human BXPC-3 cells assessed as early cells at 100 nM incubated for 24 hrs by […] (reference value: 1.68 %); assay type: functional
BXPC-3 [5] = assay: Induction of apoptosis in human BXPC-3 cells assessed as late cells at 100 nM incubated for 24 hrs by […] (reference value: 1.24 %); assay type: functional
BXPC-3 [6] = assay: Induction of apoptosis in human BXPC-3 cells assessed as necrotic cells at 100 nM incubated for 24 hrs by […] (reference value: 3.57 %); assay type: functional
BXPC-3 [7] = assay: Induction of apoptosis in human BXPC-3 cells assessed as viable cells at 25 nM incubated for 24 hrs by […] (reference value: 93.51 %); assay type: functional; details: read-out: Activity
BXPC-3 [8] = assay: Induction of apoptosis in human BXPC-3 cells assessed as early cells at 25 nM incubated for 24 hrs by […] (reference value: 1.68 %); assay type: functional
BXPC-3 [9] = assay: Induction of apoptosis in human BXPC-3 cells assessed as late cells at 25 nM incubated for 24 hrs by […] (reference value: 1.24 %); assay type: functional
BXPC-3 [10] = assay: Induction of apoptosis in human BXPC-3 cells assessed as necrotic cells at 25 nM incubated for 24 hrs by […] (reference value: 3.57 %); assay type: functional
BXPC-3 [11] = assay: Induction of apoptosis in human BXPC-3 cells assessed as viable cells at 50 nM incubated for 24 hrs by […] (reference value: 93.51 %); assay type: functional; details: read-out: Activity
BXPC-3 [12] = assay: Induction of apoptosis in human BXPC-3 cells assessed as early cells at 50 nM incubated for 24 hrs by […] (reference value: 1.68 %); assay type: functional
BXPC-3 [13] = assay: Induction of apoptosis in human BXPC-3 cells assessed as late cells at 50 nM incubated for 24 hrs by […] (reference value: 1.24 %); assay type: functional
BXPC-3 [14] = assay: Induction of apoptosis in human BXPC-3 cells assessed as necrotic cells at 50 nM incubated for 24 hrs by […] (reference value: 3.57 %); assay type: functional
BXPC-3 [15] = assay: Upregulation of P21 WAF1/Cip1 expression in human BXPC-3 cells at 25 to 100 nM incubated for 24 hrs by Western blot analysis; assay type: functional, cell-based; details: dose 25-100 nM
BXPC-3 [16] = assay: Upregulation of cleaved caspase-3 expression in human BXPC-3 cells at 25 to 100 nM incubated for 24 hrs by Western blot analysis; assay type: functional, cell-based; details: dose 25-100 nM
BXPC-3 [17] = assay: Cell cycle arrest in human BXPC-3 cells assessed as cell accumulation at S phase at 25 to 100 nM incubated for 24 hrs by flow cytometry; assay type: functional, cell-based; details: dose 25-100 nM
[18] = Metabolic stability in rat plasma assessed as half life incubated for 6 hrs by HPLC analysis; assay type: ADME, cell-free
[19] = Metabolic stability in beagle dog plasma assessed as half life incubated for 6 hrs by HPLC analysis; assay type: ADME, cell-free, Canis lupus familiaris
[20] = Metabolic stability in human plasma assessed as half life incubated for 6 hrs by HPLC analysis; assay type: ADME, cell-free
[21] = Prodrug conversion in human plasma assessed as metabolites formation incubated for 24 hrs by 31P-NMR analysis; assay type: ADME, cell-free
[22] = (§1) Prodrug conversion in human plasma assessed as mixture of benzyl 2-(((((2R,3R,5R)-5-(4-amino-2-oxopyrimidin-1(2H)-yl)-4,4-difluoro-3-hydroxytetrahydrofuran-2-yl)methoxy)(hydroxy)phosphoryl)oxy)acetate and benzyl 2-(((((2R,3R,5R)-5-(4-amino-2-oxopyrimidin-1(2H)-yl)-4,4-difluoro-2-(hydroxymethyl)tetrahydrofuran-3-yl)oxy)(hydroxy)phosphoryl)oxy)acetate metabolites formation incubated for 72 hrs by 1H-NMR analysis; assay type: ADME, cell-free
[23] = as §1, with “31P-NMR” for “1H-NMR”; assay type: ADME, cell-free
[24] = as §1, with “LC-MS” for “1H-NMR”; assay type: ADME, cell-free
[25] = AUC (0 to infinity) in Beagle dog at 1 mg/kg, iv measured for 0.083 to 24 hrs by LC-MS/MS analysis; assay type: ADME, organism-based, Canis lupus familiaris; set-up: time upper 24 hrs, time lower 0.083 hrs, dose 1 mg/kg, route iv; details: in vivo
[26] = Half life in Beagle dog at 1 mg/kg, iv measured for 0.083 to 24 hrs by LC-MS/MS analysis; assay type: ADME, organism-based, Canis lupus familiaris; details: in vivo, time 0.083-24 hrs
[27] = Clearance in Beagle dog at 1 mg/kg, iv measured for 0.083 to 24 hrs by LC-MS/MS analysis; assay type: ADME, organism-based, Canis lupus familiaris; details: in vivo, time 0.083-24 hrs
[28] = Cmax in Beagle dog at 1 mg/kg, iv measured for 0.083 to 24 hrs by LC-MS/MS analysis; assay type: ADME, organism-based, Canis lupus familiaris; set-up: time upper 24 hrs, time lower 0.083 hrs, dose 1 mg/kg, route iv; details: in vivo
CWR22R [29] = assay: In vivo antitumor activity against human 22Rv1 cells xenografted in castrated male nude Balb/c mouse assessed as tumor growth inhibition at 50 mg/kg, ip administered twice a week measured after 28 days relative to control; assay type: functional; details: 22Rv1, 672 h, time 28 day, read-out: TGI
CWR22R [30] = assay: In vivo antitumor activity against human 22Rv1 cells xenografted in castrated male nude Balb/c mouse assessed as relative increment ratio at 50 mg/kg, ip administered twice a week measured after 28 days relative to control; assay type: functional; details: time 28 day
CWR22R [31] = assay: Antiproliferation activity against human 22Rv1 cells xenografted in castrated male nude Balb/c mouse assessed as downregulation of Ki-67 level at 50 mg/kg, ip administered twice a week measured after 28 days by immunohistochemical assay relative to control; assay type: functional, organism-based; details: time 28.0 day
[32] = Toxicity in castrated male nude Balb/c mouse xenografted with human 22Rv1 cells assessed as tolerance at 50 mg/kg, ip administered twice a week measured after 28 days; assay type: organism-based, CWR22R; details: in vivo, 672 h, time 28 day
[33] = Toxicity in castrated male nude Balb/c mouse xenografted with human 22Rv1 cells assessed as animal weight loss at 50 mg/kg, ip administered twice a week measured after 28 days; assay type: organism-based, CWR22R; details: in vivo, 672 h, time 28 day
[34] = Toxicity in castrated male nude Balb/c mouse xenografted with human 22Rv1 cells assessed as toxic signs at 50 mg/kg, ip administered twice a week measured after 28 days; assay type: organism-based, CWR22R; details: in vivo, 672 h, time 28 day
BXPC-3 [35] = assay: In vivo antitumor activity against human BXPC-3 cells xenografted in nude Balb/c mouse assessed as tumor growth inhibition at 50 to 80 mg/kg, ip measured after 28 days; assay type: functional, organism-based; details: dose 50-80 mg/kg, time 28.0 day
[36] = Toxicity in nude Balb/c mouse xenografted with human BXPC-3 cells assessed as apparent signs of toxicity at 50 to 80 mg/kg, ip measured after 28 days; assay type: organism-based; details: in vivo, 672 h, dose 50-80 mg/kg, time 28 day

- IC50 (MM1.S): 3.6 nM
- IC50 (BXPC-3 [1]): 16.5 nM
- IC50 (MIA PaCa-2): 12.5 nM
- IC50 (MV4-11): 5.4 nM
- IC50 (Huh-7): 16.2 nM
- half-life [18]: 40 min
- half-life [19]: 40 min
- half-life [20]: 40 min
- Drug metabolism [21]: Metabolite_Detected
- Drug metabolism [22]: Metabolite_Detected
- Drug metabolism [23]: Metabolite_Detected
- Drug metabolism [24]: Metabolite_Detected
- AUC(0-inf) [25]: 520 ng·h/mL
- half-life [26]: 7.2 min
- clearance [27]: 32.5 mL/min/kg
- Cmax [28]: 3600 ng/mL
SMILES: Nc1ccn([C@@H]2O[C@@H]3COP(=O)(OCC(=O)OCc4ccccc4)O[C@H]3C2(F)F)c(=O)n1 (stereo partly specified)
- IC50 (CWR22R [2]): 10.6 nM
- IC50 (JeKo-1): 19.2 nM
- viability at 0.1 µM (BXPC-3 [3]): 88.6%
- Activity (BXPC-3 [4]): 3.5%
- Activity (BXPC-3 [5]): 3.48%
- Activity (BXPC-3 [6]): 4.42%
- viability at 0.025 µM (BXPC-3 [7]): 91.7%
- Activity (BXPC-3 [8]): 2.87%
- Activity (BXPC-3 [9]): 2.31%
- Activity (BXPC-3 [10]): 3.17%
- viability at 0.05 µM (BXPC-3 [11]): 90.1%
- Activity (BXPC-3 [12]): 3.19%
- Activity (BXPC-3 [13]): 2.73%
- Activity (BXPC-3 [14]): 4.02%
- Activity (BXPC-3 [15]): Active
- Activity (BXPC-3 [16]): inactive
- Activity (BXPC-3 [17]): Active
- inhibition in vivo at 50 mg/kg (CWR22R [29]): 68.5%
- T/C (CWR22R [30]): 35.2%
- Activity (CWR22R [31]): Active
- Activity [32]: Non-Toxic
- Activity [33]: Non-Toxic
- Activity [34]: Non-Toxic
- Activity (BXPC-3 [35]): Active
- Activity [36]: Non-Toxic
